Measurements from US6525032B2, “Purine derivatives” (Pfizer Inc, priority 2000, dated 2003).

tested on: neutrophils activated by fMLP; test: superoxide production from human neutrophils activated by fMLP (cytochrome C reduction); type: cell-based; details: Neutrophil; fMLP-induced superoxide production, neutrophils from human peripheral blood, cytochalasin B priming, adenosine deaminase present; read-out: IC50 (concentration giving 50% inhibition compared to the control response to fMLP)
Procedure: This is evaluated by determining the compound profile in an assay where superoxide production was measured from neutrophils activated by fMLP. Neutrophils were isolated from human peripheral blood using dextran sedimentation followed by centrifugation through Ficoll-Hypaque solution. Any contaminating erythrocytes in the granulocyte pellet were removed by lysis with ice-cold distilled water. Superoxide production from the neutrophils was induced by fMLP in the presence of a priming concentration of cytochalasin B. Adenosine deaminase was included in the assay to remove any endogenously produced adenosine that might suppress superoxide production. The effect of the compound on the fMLP-induced response was monitored colorometrically from the reduction of cytochrome C within the assay buffer. The potency of the compounds was assessed by the concentration giving 50% inhibition (IC50) compared to the control response to fMLP.

IC50, < 0.04 µM:
CCNC(=O)[C@H]1O[C@@H](n2cnc3c(NCC(c4ccccc4)c4ccccc4)nc(C(=O)NCCCN4CCCC4)nc32)[C@H](O)[C@@H]1O [Example 7, 6-[(2,2-diphenylethyl)amino]-9-{(2R,3R,4S,5S)-5-[(ethylamino)carbonyl]-3,4-dihydroxytetrahydro-2-furanyl}-N-[3-(1-pyrrolidinyl)propyl]-9H-purine-2-carboxamide]
CCNC(=O)[C@H]1O[C@@H](n2cnc3c(NC(CC)CC)nc(C(=O)NCCN4CCCCC4)nc32)[C@H](O)[C@@H]1O [Example 10, 9-{(2R,3R,4S, 5S)-5-[(ethylamino)carbonyl]-3,4-dihydroxytetrahydro-2-furanyl}-6-[(1-ethylpropyl)amino]-N-[2-(1-piperidinyl)ethyl]-9H-purine-2-carboxamide]
CCNC(=O)[C@H]1O[C@@H](n2cnc3c(NCC(c4ccccc4)c4ccccc4)nc(C(=O)NCCN4CCC(C(C)C)CC4)nc32)[C@H](O)[C@@H]1O [Example 12, 6-[(2,2-diphenylethyl)amino]-9-{(2R,3R,4S,5S)-5-[(ethylamino)carbonyl]-3,4-dihydroxytetrahydro-2-furanyl}-N-[2-(4-isopropyl-1-piperidinyl)ethyl]-9H-purine-2-carboxamide]
CCNC(=O)[C@H]1O[C@@H](n2cnc3c(NCC(c4ccccc4)c4ccccc4)nc(C(=O)NCCCNC(C)C)nc32)[C@H](O)[C@@H]1O [Example 16, 6-[(2,2-diphenylethyl)amino]-9-{(2R,3R,4S,5S)-5-[(ethylamino)carbonyl]-3,4-dihydroxytetrahydro-2-furanyl}-N-[3-(isopropylamino)propyl]-9H-purine-2-carboxamide]
CCNC(=O)[C@H]1O[C@@H](n2cnc3c(NCC4c5ccccc5-c5ccccc54)nc(C(=O)NCCN4CCCCC4)nc32)[C@H](O)[C@@H]1O [Example 20, 9-{(2R,3R,4S,5S)-5-[(ethylamino)carbonyl]-3,4-dihydroxytetrahydro-2-furanyl}-6-[(9H-fluoren-9-ylmethyl)amino]-N-[2-(1-piperidinyl)ethyl]-9H-purine-2-carboxamide]
CCNC(=O)[C@H]1O[C@@H](n2cnc3c(NCC(c4ccccc4)c4ccccc4)nc(C(=O)NCCCN(CC)CC)nc32)[C@H](O)[C@@H]1O [Example 21, N-[3-(diethylamino)propyl]-6-[(2,2-diphenylethyl)amino]-9-{(2R,3R,4S,5S)-5-[(ethylamino)carbonyl]-3,4-dihydroxytetrahydro-2-furanyl}-9H-purine-2-carboxamide]
CCNC(=O)[C@H]1O[C@@H](n2cnc3c(NCC(c4ccccc4)c4ccccc4)nc(C(=O)NCCCN(C)C)nc32)[C@H](O)[C@@H]1O [Example 27, N-[3-(dimethylamino)propyl]-6-[(2,2-diphenylethyl)amino]-9-{(2R,3R,4S,5S)-5-[(ethylamino)carbonyl]-3,4-dihydroxytetrahydro-2-furanyl}-9H-purine-2-carboxamide]
CCNC(=O)[C@H]1O[C@@H](n2cnc3c(NCC(c4ccccc4)c4ccccc4)nc(C(=O)NCCN4CCC(C)CC4)nc32)[C@H](O)[C@@H]1O [Example 31, 6-[(2,2-diphenylethyl)amino]-9-{(2R,3R,4S,5S)-5-[(ethylamino)carbonyl]-3,4-dihydroxytetrahydro-2-furanyl}-N-[2-(4-methyl-1-piperidinyl)ethyl]-9H-purine-2-carboxamide]
